Values joined by “and” are separate entries in the source; they are usually repeats but may differ in a detail not shown here. Equal values may be shown once. Read-outs that look alike come from different tables or passages of the source.
Assays:
[1] = Cytotoxicity test with MTT method in Vero cells; format: cell-based, African green monkey; conditions: African green monkey, 5 days, read-out: CC50 (50% cytotoxic concentration)
Procedure: (§1) The cytotoxicity of compounds 1–7 to Vero cells, an epithelial cell line derived from the kidney of an African green monkey, was tested using the 3-(4,5-dimethylthiazol-2-yl)-2,5-diphenyltetrazolium bromide (MTT) method. […] Based on CC20 values, which was the maximum concentration used for antiviral screening, 3b compound was the least toxic with a value of 527.2 µM. Compounds 2a and 2b were the most cytotoxic with values of 8.87 µM and 9.89 µM, respectively. […] The results from compounds 3a, 3b and 4a, 4b ranged from 40.69 to 527.20 µM. […] The presence of phthalimide group or sugar increases the values of CC20 and CC50 (Table 2 and Supplementary Material: Figure S1).
(§2) 96-well plates with 1 × 10^4 cell/well were used in this assay and prepared 24 h previously. The compounds were diluted in a 2:1 ratio so that a maximum of 0.8% DMSO was used. The concentrations used were 800, 400, 200, 100, 50, 25 and 12.5 µM. Dilutions were added to the wells in triplicate and incubated at 37 °C and 5% CO2 atmosphere. After 5 days, the wells were emptied and a 50 µL of 1 mg/mL MTT (3-(4,5-dimethylthiazol-2-yl)-2,5-diphenyltetrazolium bromide) (Sigma-Aldrich) solution was added, and the cells were incubated for 3–4 h for formation of formazan crystals through the mitochondria of viable cells. Then, medium was removed and 100 µL DMSO was added to the wells to solubilize the formazan crystals. With the aid of an incubator Tecnal TE-420 (Tecnal Equipamentos Científicos, Piracicaba, São Paulo, Brazil), the plates were homogenized at 120 RPM at 37 °C and the optical densities were read at 570 nm on a spectrophotometer BioTekTM ELx800TM (BioTek Instruments, Winooski, VT, USA).
(§3) The determination of the CC20 and CC50 values was obtained through the linear regression analysis of the XY graph generated by the values of the concentrations used in the test and the triplicate values of the viability. In the post-infection and pre-treatment tests, ANOVA and Dunnett tests were used, considering […] as the minimum significance value. All tests were performed in GraphPad Prism v.6.0 program (GraphPad Software, Inc., San Diego, CA, USA).

[2] = test system: Vero cells; assay: Cytotoxicity test with MTT method in Vero cells; format: cell-based, African green monkey; conditions: for CC20 (20% cytotoxic concentration): 5 days
Procedure: as §1, §2, §3

[3] = test system: ZIKV; assay: Post-infection test with ZIKV in Vero cells; format: cell-based, Zika virus
Procedure: We then investigated the activity of compound 4b after ZIKV infection in cells. As already noted in the screening test, 4b reduced ZIKV growth to levels similar to 6MMPr, a positive control previously described by our group. As in the pre-treatment test, four different concentrations were used, with the maximum being CC20 (136.90, 68.45, 34.22 and 17.11 µM). […] It is worth highlighting the constant decrease in the viral titer, even in lower concentrations, while the positive control 6MMPr reduces it only in the highest concentrations.
Statistical analysis compared the concentrations of each compound at each collection time (3 d.p.i. and 5 d.p.i.) with a t-test.
Figure 6 Comparison of anti-ZIKV activity between 6MMPr and 4b after three- and five-days post-infection (d.p.i.). 6MMPr and compound 4b were submitted to a post-infection test when Vero cells was infected with ZIKV at MOI 0.1 for 2 h then treated with compounds. Concentrations used in the test corresponded to CC20 (4b = 136.90 µM; 6MMPr = 60.50 µM), CC20/2 (4b = 68.45 µM; 6MMPr = 30.25 µM), CC20/4 (4b = 34.22 µM; 6MMPr = 15.13 µM) and CC20/8 (4b = 17.11 µM; 6MMPr = 7.56 µM). The experiment was done in triplicates and values are the mean and the SD. Statistical analysis was made between compounds using t-test on GraphPad Prism program. * = significative; ns = not statistically significant for p < 0.05. (a) 3 d.p.i. from both compounds. (b) 5 d.p.i. from both compounds.
96-well plates with 1 × 10^4 cell/well were used in this assay and prepared 24 h previously. Seven serial dilutions of the virus were prepared in DMEM + 2% FBS culture medium. After removing the culture medium from the plate, 50 µL of each dilution was added to the wells in several repetitions. The plate was incubated at 37 °C and 5% atm CO2 for 1 h. After this interval, each well of the plate received an additional 100 µL of DMEM + 2% FBS culture medium. The plate was incubated again, in the same parameters, for 5 days. Some columns of the plate were selected for use as a cell control (culture medium only, no virus). The reading was performed in an inverted optical microscope AE2000, Motic (Motic, Kowloon Bay, Hong Kong) counting positives wells by the presence of cytopathic effect and the determination of the sample title was performed with the aid of the Microsoft Office Excel program (Microsoft® Office, Redmond, WA, USA).
48-well plates with 2.5 × 10^4 cells/well were prepared 24 h previously. A ZIKV solution at MOI 0.1 was inoculated into the wells and the cells incubated at 37 °C and 5% CO2 atmosphere. After 2 h, the culture medium was removed, and the wells were washed with 1X PBS. 2:1 dilution of 4b (136.90 µM, 68.45 µM, 34.22 µM and 17.11 µM) and 6MMPr (60.50 µM, 30.25 µM, 15.13 µM and 7.56 µM) were added in triplicate. The cells were again incubated for 72 h and 120 h. The supernatants from the wells were collected and titrated.

[4] = test system: Vero cells; parameters: method as in PMID 28803932; conditions: ref [17], cited from earlier work
[5] = test system: macrophages (peritoneal and J774A.1) and fibroblast cells; parameters: method as in PMID 33339081; conditions: ref [28]; cited from earlier work

Compound | CC50 at 5 days [1] [µM] | CC20 (20% cytotoxic concentration) [2] | further results
CC(=O)OC[C@H]1O[C@H](OC(C)(C)c2cn(C3=CC(=O)c4ccccc4C3=O)nn2)C=C[C@@H]1OC(C)=O [Compound 6c] | 58.1 | 25.73 µM | 
CC(=O)OC[C@H]1O[C@H](OCCc2cn(C3=CC(=O)c4ccccc4C3=O)nn2)C=C[C@@H]1OC(C)=O [Compound 6a] | 68 | 39.92 µM | 
O=C1C=C(NCc2cn(CN3C(=O)c4ccccc4C3=O)nn2)C(=O)c2ccccc21 [Compound 3a] | 470 | 55.28 µM | 
CC(=O)OCC1OC(n2cc(CNC3=C(Br)C(=O)c4ccccc4C3=O)nn2)C(OC(C)=O)C(OC(C)=O)C1OC(C)=O (centres unmarked) [Compound 7] | 334 | 119.10 µM | 
CSc1ncnc2c1ncn2[C@@H]1O[C@H](CO)[C@@H](O)[C@H]1O [Compound 6MMPr, 6-methylmercaptopurine riboside, reference compound] |  |  | % Viral Inhibition ([3]; 3 d.p.i., CC20 (4b 136.90 µM; 6MMPr 60.50 µM)): 99.8%; % Viral Inhibition ([3]; 3 d.p.i., CC20/2 (4b 68.45 µM; 6MMPr 30.25 µM)): 54.4%; % Viral Inhibition ([3]; 3 d.p.i., CC20/4 (4b 34.23 µM; 6MMPr 15.13 µM)): 42.7%; % Viral Inhibition ([3]; 3 d.p.i., CC20/8 (4b 17.11 µM; 6MMPr 7.6 µM), negative = increased virus titer compared to control): −93.4 * %; % Viral Inhibition ([3]; 5 d.p.i., CC20 (4b 136.90 µM; 6MMPr 60.50 µM)): 99.7%; % Viral Inhibition ([3]; 5 d.p.i., CC20/2 (4b 68.45 µM; 6MMPr 30.25 µM)): 96.8%; % Viral Inhibition ([3]; 5 d.p.i., CC20/4 (4b 34.23 µM; 6MMPr 15.13 µM)): 95.1%; % Viral Inhibition ([3]; 5 d.p.i., CC20/8 (4b 17.11 µM; 6MMPr 7.6 µM)): 81.1%; % Viral Inhibition ([3]; post-infection test, Table 4, concentration and time not stated): 97.8%; IC50 ([3]; post-infection test, ZIKV MOI 0.1, Vero cells, read-out: IC50 (50% inhibition concentration, virus replication)): 24.5 µM; effect on growth of the virus (viral titer) ([3]; post-infection, four concentrations from CC20 to CC20/8, 3 and 5 d.p.i.): prevents the growth of the virus in both cases; SI (selectivity index) ([3]; ratio between the CC50 and IC50 values): 11.9; CC50 ([4]; read-out: CC50 (50% cytotoxic concentration)): 291 µM; CC20 (20% cytotoxic concentration) [4]: 60.50 µM and 60.5 µM
CC(=O)OC[C@H]1O[C@H](OCCCc2cn(C3=CC(=O)c4ccccc4C3=O)nn2)C=C[C@@H]1OC(C)=O [Compound 6d] | 69.5 | 38.61 µM | 
O=C1C=C(NCc2cn(CCN3C(=O)c4ccccc4C3=O)nn2)C(=O)c2ccccc21 [Compound 3b] | 1190 | 527.2 µM and 527.20 µM | 
O=C1C=C(NCCn2cc(CCCO)nn2)C(=O)c2ccccc21 [Compound 5a, 2-[2-(4-(3-Hydroxypropyl)-1H-1,2,3-triazol-1-yl)]-ethylamino-1,4-naphthoquinone] | 294 | 74.85 µM | concentration until which cells remain viable [2]: ≤ 400 µM; melting point: 143 to 145 °C
CC(C)(O)c1cn(CCNC2=CC(=O)c3ccccc3C2=O)nn1 [Compound 5b] | 298 | 66.93 µM | concentration until which cells remain viable [2]: ≤ 400 µM
O=C1C=C(n2cc(CCCO)nn2)C(=O)c2ccccc21 [Compound 2b] | 38.8 | 9.89 µM | 
O=C1c2ccccc2C(=O)N1CCn1cc(-c2ccccc2)nn1 [4-phenyl-1-[2-(phthalimido-2-yl)ethyl]-1-H-1,2,3-triazole] |  |  | cytotoxicity [5]: low cytotoxicity
O=C1C(Br)=C(NCc2cn(CCCN3C(=O)c4ccccc4C3=O)nn2)C(=O)c2ccccc21 [Compound 4a] | 68.8 | 40.69 µM | 
CC(=O)OC[C@H]1O[C@H](OCc2cn(C3=CC(=O)c4ccccc4C3=O)nn2)C=C[C@@H]1OC(C)=O [Compound 6b] | 48.7 | 21.18 µM | 
CC(C)(O)c1cn(CN2C(=O)c3ccccc3C2=O)nn1 [Compound 1] | 680 | 177.10 µM | 
O=C1C=C(n2cc(CCO)nn2)C(=O)c2ccccc21 [Compound 2a] | 38 | 8.87 µM | 
